Measurements: ChEMBL document CHEMBL4177646, “Discovery of novel nitroimidazole enols as Pseudomonas aeruginosa DNA cleavage agents” (Bioorg Med Chem, 2017)
≈ marks a conversion by molar mass, not a printed value. Calls of active or inactive are those of the source. The calls are words filed in the database; no cut-off is given here.

Tests used:
[1] = test system: Staphylococcus aureus; assay: Antibacterial activity against methicillin-resistant Staphylococcus aureus N315 after 24 hrs by micro broth dilution method; assay type: functional; details: N315, 24 h
[2] = test system: Staphylococcus aureus; assay: Antibacterial activity against drug-resistant Staphylococcus aureus after 24 hrs by micro broth dilution method; assay type: functional
[3] = test system: Staphylococcus aureus; assay: Antibacterial activity against Staphylococcus aureus ATCC 25923 after 24 hrs by micro broth dilution method; assay type: functional; details: ATCC 25923, 24 h
[4] = test system: Staphylococcus aureus; assay: Antibacterial activity against Staphylococcus aureus ATCC 29213 after 24 hrs by micro broth dilution method; assay type: functional; details: ATCC 29213, 24 h
[5] = test system: Escherichia coli; assay: Antibacterial activity against drug-resistant Escherichia coli after 24 hrs by micro broth dilution method; assay type: functional
[6] = test system: Escherichia coli; assay: Antibacterial activity against Escherichia coli ATCC 25922 after 24 hrs by micro broth dilution method; assay type: functional; details: ATCC 25922, 24 h
[7] = test system: Pseudomonas aeruginosa; assay: Antibacterial activity against drug-resistant Pseudomonas aeruginosa after 24 hrs by micro broth dilution method; assay type: functional
[8] = test system: Pseudomonas aeruginosa; assay: Antibacterial activity against Pseudomonas aeruginosa ATCC 27853 after 24 hrs by micro broth dilution method; assay type: functional; details: ATCC 27853, 24 h
[9] = test system: Candida albicans; assay: Antifungal activity against drug-resistant Candida albicans after 24 hrs by micro broth dilution method; assay type: functional
[10] = test system: Candida albicans; assay: Antifungal activity against Candida albicans ATCC 90023 after 24 hrs by micro broth dilution method; assay type: functional; details: ATCC 90023, 24 h
[11] = test system: Candida tropicalis; assay: Antifungal activity against Candida tropicalis after 24 hrs by micro broth dilution method; assay type: functional
[12] = test system: Pseudomonas aeruginosa; assay: Bactericidal activity against drug sensitive Pseudomonas aeruginosa assessed as bacterial load at 4 times MIC after 120 mins by time-kill assay (reference value: 9.3 10^5 CFU/ml); assay type: functional
[13] = test system: Pseudomonas aeruginosa; assay: Bactericidal activity against drug sensitive Pseudomonas aeruginosa assessed as bacterial load at 4 times MIC after 150 mins by time-kill assay (reference value: 4.3 10^6 CFU/ml); assay type: functional
[14] = test system: Pseudomonas aeruginosa; assay: Bactericidal activity against drug sensitive Pseudomonas aeruginosa assessed as bacterial load at 4 times MIC after 180 mins by time-kill assay (reference value: 3.5 10^7 CFU/ml); assay type: functional
[15] = test system: Pseudomonas aeruginosa; assay: Bactericidal activity against drug sensitive Pseudomonas aeruginosa assessed as bacterial load at 4 times MIC after 210 mins by time-kill assay (reference value: 3.2 10^9 CFU/ml); assay type: functional
[16] = test system: Pseudomonas aeruginosa; assay: Bactericidal activity against drug sensitive Pseudomonas aeruginosa assessed as bacterial load at 4 times MIC after 240 mins by time-kill assay (reference value: 1.1 10^10 CFU/ml); assay type: functional
[17] = test system: Pseudomonas aeruginosa; assay: Bactericidal activity against drug sensitive Pseudomonas aeruginosa assessed as bacterial load at 4 times MIC after 270 mins by time-kill assay (reference value: 1.8 10^10 CFU/ml); assay type: functional
[18] = test system: DNA; assay: Binding affinity to sensitive Pseudomonas aeruginosa DNA assessed as hypochromic effect at 3.81 x 10^-6mol/L by neutral red dye based UV-vis spectroscopic method; assay type: nucleic-acid assay
[19] = test system: DNA; assay: Induction of sensitive Pseudomonas aeruginosa DNA cleavage at 75 uM by ethidium bromide staining-based agarose gel electrophoresis; assay type: nucleic-acid assay
[20] = test system: Pseudomonas aeruginosa; assay: Bactericidal activity against drug sensitive Pseudomonas aeruginosa assessed as log reduction in bacterial load at 4 times MIC after 120 mins by time-kill assay; assay type: functional
[21] = target: T1, Albumin (Homo sapiens, UniProt P02768); assay: Binding affinity to HSA assessed as Stern-Volmer quenching constant at pH 7.4 at 290 K by fluorescence assay; assay type: ADME; details: isolated protein
T1 sequence (P02768 whole entry): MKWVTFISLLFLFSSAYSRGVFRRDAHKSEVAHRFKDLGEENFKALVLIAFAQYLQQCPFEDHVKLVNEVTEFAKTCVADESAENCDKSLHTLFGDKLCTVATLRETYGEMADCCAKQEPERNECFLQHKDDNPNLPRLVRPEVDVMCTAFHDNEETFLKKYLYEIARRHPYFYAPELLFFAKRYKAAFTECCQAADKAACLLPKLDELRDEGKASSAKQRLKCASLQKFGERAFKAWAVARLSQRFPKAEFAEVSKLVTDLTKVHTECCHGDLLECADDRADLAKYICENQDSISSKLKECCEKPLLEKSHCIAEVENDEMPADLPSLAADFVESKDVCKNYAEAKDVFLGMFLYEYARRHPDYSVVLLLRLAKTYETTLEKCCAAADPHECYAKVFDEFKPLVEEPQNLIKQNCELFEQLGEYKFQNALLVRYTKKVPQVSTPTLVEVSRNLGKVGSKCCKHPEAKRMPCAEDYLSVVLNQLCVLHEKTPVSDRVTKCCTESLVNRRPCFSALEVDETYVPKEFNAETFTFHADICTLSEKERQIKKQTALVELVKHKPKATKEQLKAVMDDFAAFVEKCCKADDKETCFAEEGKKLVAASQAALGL

[22] = target: T1, Albumin; assay: Binding affinity to HSA assessed as Stern-Volmer quenching constant at pH 7.4 at 300 K by fluorescence assay; assay type: ADME; details: isolated protein
[23] = target: T1, Albumin; assay: Binding affinity to HSA assessed as Stern-Volmer quenching constant at pH 7.4 at 313 K by fluorescence assay; assay type: ADME; details: isolated protein
[24] = target: T1, Albumin; assay: Binding affinity to HSA assessed as biomolecular quenching rate constant at pH 7.4 at 290 K by fluorescence assay; assay type: ADME; details: isolated protein
[25] = target: T1, Albumin; assay: Binding affinity to HSA assessed as biomolecular quenching rate constant at pH 7.4 at 300 K by fluorescence assay; assay type: ADME; details: isolated protein
[26] = target: T1, Albumin; assay: Binding affinity to HSA assessed as biomolecular quenching rate constant at pH 7.4 at 313 K by fluorescence assay; assay type: ADME; details: isolated protein
[27] = target: T1, Albumin; assay: Binding affinity to HSA assessed as modified Stern-Volmer quenching constant at pH 7.4 at 290 K by fluorescence assay; assay type: ADME; details: isolated protein
[28] = target: T1, Albumin; assay: Binding affinity to HSA assessed as modified Stern-Volmer quenching constant at pH 7.4 at 300 K by fluorescence assay; assay type: ADME; details: isolated protein
[29] = target: T1, Albumin; assay: Binding affinity to HSA assessed as modified Stern-Volmer quenching constant at pH 7.4 at 313 K by fluorescence assay; assay type: ADME; details: isolated protein
[30] = target: T1, Albumin; assay: Binding affinity to HSA assessed as equilibrium binding constant at pH 7.4 at 290 K by scatchard assay; assay type: ADME; details: isolated protein
[31] = target: T1, Albumin; assay: Binding affinity to HSA assessed as equilibrium binding constant at pH 7.4 at 300 K by scatchard assay; assay type: ADME; details: isolated protein
[32] = target: T1, Albumin; assay: Binding affinity to HSA assessed as equilibrium binding constant at pH 7.4 at 313 K by scatchard assay; assay type: ADME; details: isolated protein
[33] = test system: Pseudomonas aeruginosa; assay: Potency index, ratio of norfloxacin MIC to compound MIC for Pseudomonas aeruginosa ATCC 27853; assay type: functional
[34] = test system: Candida tropicalis; assay: Potency index, ratio of fluconazole MIC to compound MIC for Candida tropicalis; assay type: functional
[35] = test system: DNA; assay: Binding affinity to sensitive Pseudomonas aeruginosa DNA assessed as hypochromic effect by neutral red dye based UV-vis spectroscopic method; assay type: nucleic-acid assay
[36] = test system: Pseudomonas aeruginosa; assay: Potency index, ratio of metronidazole MIC to compound MIC for Pseudomonas aeruginosa ATCC 27853; assay type: functional

COc1cc(/C=C(\C(C)O)n2c([N+](=O)[O-])cnc2C)ccc1O (stereo not given)
MIC [1]: 1600 µM (≈ 511 µg/mL) | MIC [2]: 1600 µM (≈ 511 µg/mL) | MIC [3]: 800 µM (≈ 255 µg/mL) | MIC [4]: 800 µM (≈ 255 µg/mL) | MIC [5]: 1600 µM (≈ 511 µg/mL) | MIC [6]: 400 µM (≈ 128 µg/mL) | MIC [7]: 400 µM (≈ 128 µg/mL) | MIC [8]: 100 µM (≈ 31.9 µg/mL) | MIC [9]: 256 µg/mL (≈ 802 µM) | MIC [10]: 32 µg/mL (≈ 100 µM) | MIC [11]: 128 µg/mL (≈ 401 µM) | Activity [12]: 9.3 ×10⁶ CFU/ml | Activity [13]: 3 ×10³ CFU/ml | Activity [14]: 1.5 ×10² CFU/ml | Activity [15]: 87 CFU/ml | Activity [16]: 72 CFU/ml | Activity [17]: 65 CFU/ml | Activity [18]: Active | Activity [19]: Active | Activity [20]: >3.5 log10CFU/ml | KSV [21]: 7.54 ×10⁴ L/mol | KSV [22]: 6.12 ×10⁴ L/mol | KSV [23]: 4.99 ×10⁴ L/mol | Kq [24]: 1.18 ×10¹³ L/mol/s | Kq [25]: 9.56 ×10¹³ L/mol/s | Kq [26]: 7.79 ×10¹³ L/mol/s | KSV [27]: 82200 M⁻¹ | KSV [28]: 61800 M⁻¹ | KSV [29]: 47400 M⁻¹ | Kb [30]: 4.77 ×10⁴ L/mol | Kb [31]: 4.77 ×10⁴ L/mol | Kb [32]: 4.83 ×10⁴ L/mol | Ratio [33]: 4 - 16 | Ratio [34]: 4 | K [35]: 1.83 ×10⁴ L/mol

Cc1ccc(/C=C(\C(C)O)n2c([N+](=O)[O-])cnc2C)cc1 (stereo not given)
MIC [1]: 1780 µM (≈ 511 µg/mL) | MIC [2]: 1780 µM (≈ 511 µg/mL) | MIC [3]: 890 µM (≈ 256 µg/mL) | MIC [4]: 1780 µM (≈ 511 µg/mL) | MIC [5]: 1780 µM (≈ 511 µg/mL) | MIC [6]: 440 µM (≈ 126 µg/mL) | MIC [7]: 890 µM (≈ 256 µg/mL) | MIC [8]: 440 µM (≈ 126 µg/mL) | MIC [9]: 512 µg/mL (≈ 1780 µM) | MIC [10]: 64 µg/mL (≈ 223 µM) | MIC [11]: 128 µg/mL (≈ 445 µM) | Ratio [33]: 4 | Ratio [36]: 7

CC(=O)/C(=C\c1ccc(F)cc1)n1c([N+](=O)[O-])cnc1C
MIC [1]: 1760 µM (≈ 509 µg/mL) | MIC [2]: 1760 µM (≈ 509 µg/mL) | MIC [3]: 880 µM (≈ 255 µg/mL) | MIC [4]: 1760 µM (≈ 509 µg/mL) | MIC [5]: 1760 µM (≈ 509 µg/mL) | MIC [6]: 110 µM (≈ 31.8 µg/mL) | MIC [7]: 880 µM (≈ 255 µg/mL) | MIC [8]: 440 µM (≈ 127 µg/mL) | MIC [9]: 256 µg/mL (≈ 885 µM) | MIC [10]: 128 µg/mL (≈ 442 µM) | MIC [11]: 256 µg/mL (≈ 885 µM) | Ratio [33]: 4 - 16

Cc1ncc([N+](=O)[O-])n1/C(=C/c1ccc(N(C)C)cc1)C(C)O (stereo not given)
MIC [1]: 1620 µM (≈ 513 µg/mL) | MIC [2]: 1620 µM (≈ 513 µg/mL) | MIC [3]: 810 µM (≈ 256 µg/mL) | MIC [4]: 1620 µM (≈ 513 µg/mL) | MIC [5]: 1620 µM (≈ 513 µg/mL) | MIC [6]: 810 µM (≈ 256 µg/mL) | MIC [7]: 1620 µM (≈ 513 µg/mL) | MIC [8]: 400 µM (≈ 127 µg/mL) | MIC [9]: 512 µg/mL (≈ 1620 µM) | MIC [10]: 64 µg/mL (≈ 202 µM) | MIC [11]: 128 µg/mL (≈ 405 µM) | Ratio [33]: 4 | Ratio [36]: 7

Cc1ncc([N+](=O)[O-])n1/C(=C/c1ccc(F)cc1)C(C)O (stereo not given)
MIC [1]: 1760 µM (≈ 513 µg/mL) | MIC [2]: 1710 µM (≈ 498 µg/mL) | MIC [3]: 880 µM (≈ 256 µg/mL) | MIC [4]: 1710 µM (≈ 498 µg/mL) | MIC [5]: 1710 µM (≈ 498 µg/mL) | MIC [6]: 440 µM (≈ 128 µg/mL) | MIC [7]: 880 µM (≈ 256 µg/mL) | MIC [8]: 110 µM (≈ 32 µg/mL) | MIC [9]: 512 µg/mL (≈ 1760 µM) | MIC [10]: 64 µg/mL (≈ 220 µM) | MIC [11]: 128 µg/mL (≈ 439 µM) | Ratio [33]: 4 - 16
